In PubChem BioAssay (NCI):
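Assay format: 96-well plates, 48-hour exposure. TGI marks complete inhibition of growth.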

How the values were obtained:
Test in all cases: NCI anticancer screen, dose series, 48 h
786-0 renal = tested on: 786-0 renal
A498 renal = tested on: A498 renal
A549 NSCLC = tested on: A549 NSCLC
ACHN renal = tested on: ACHN renal
BT-549 breast = tested on: BT-549 breast
CAKI-1 renal = tested on: CAKI-1 renal
CCRF-CEM leukemia = tested on: CCRF-CEM leukemia
COLO 205 colon = tested on: COLO 205 colon
DU-145 prostate = tested on: DU-145 prostate
EKVX NSCLC = tested on: EKVX NSCLC
HCC-2998 colon = tested on: HCC-2998 colon
HCT-116 colon = tested on: HCT-116 colon
HCT-15 colon = tested on: HCT-15 colon
HL-60(TB) leukemia = tested on: HL-60(TB) leukemia
HOP-62 NSCLC = tested on: HOP-62 NSCLC
HOP-92 NSCLC = tested on: HOP-92 NSCLC
HS 578T breast = tested on: HS 578T breast
HT29 colon = tested on: HT29 colon
IGROV1 ovarian = tested on: IGROV1 ovarian
K-562 leukemia = tested on: K-562 leukemia
KM12 colon = tested on: KM12 colon
LOX IMVI melanoma = tested on: LOX IMVI melanoma
M14 melanoma = tested on: M14 melanoma
MALME-3M melanoma = tested on: MALME-3M melanoma
MCF7 breast = tested on: MCF7 breast
MDA-MB-231 breast = tested on: MDA-MB-231 breast
MDA-MB-435 = tested on: MDA-MB-435
MDA-N = tested on: MDA-N
MOLT-4 leukemia = tested on: MOLT-4 leukemia
NCI-H226 lung = tested on: NCI-H226 lung
NCI-H23 lung = tested on: NCI-H23 lung
NCI-H460 lung = tested on: NCI-H460 lung
NCI-H522 lung = tested on: NCI-H522 lung
NCI/ADR-RES ovarian = tested on: NCI/ADR-RES ovarian
OVCAR-3 ovarian = tested on: OVCAR-3 ovarian
OVCAR-4 ovarian = tested on: OVCAR-4 ovarian
OVCAR-5 ovarian = tested on: OVCAR-5 ovarian
OVCAR-8 ovarian = tested on: OVCAR-8 ovarian
PC-3 prostate = tested on: PC-3 prostate
RPMI-8226 leukemia = tested on: RPMI-8226 leukemia
RXF 393 renal = tested on: RXF 393 renal
SF-268 CNS = tested on: SF-268 CNS
SF-295 CNS = tested on: SF-295 CNS
SF-539 CNS = tested on: SF-539 CNS
SK-MEL-2 melanoma = tested on: SK-MEL-2 melanoma
SK-MEL-28 melanoma = tested on: SK-MEL-28 melanoma
SK-MEL-5 melanoma = tested on: SK-MEL-5 melanoma
SK-OV-3 ovarian = tested on: SK-OV-3 ovarian
SN12C renal = tested on: SN12C renal
SNB-19 CNS = tested on: SNB-19 CNS
SNB-75 CNS = tested on: SNB-75 CNS
SR leukemia = tested on: SR leukemia
SW-620 colon = tested on: SW-620 colon
T-47D breast = tested on: T-47D breast
TK-10 renal = tested on: TK-10 renal
U251 CNS = tested on: U251 CNS
UACC-257 melanoma = tested on: UACC-257 melanoma
UACC-62 melanoma = tested on: UACC-62 melanoma
UO-31 renal = tested on: UO-31 renal

Measured: TGI

COc1cc(N(CCC#N)CCC#N)ccc1/C=C1\SC(=S)NC1=O
> 100 µM: all assays above
